Results from patent US11440870B2, “Cannabidiolic acid esters compositions and uses thereof” (Yissum Research Development Company of the Hebrew …, priority 2017, dated 2022).

System: LiCl-induced conditioned gaping (acute nausea) in rats
Assay: Acute nausea: LiCl-induced conditioned gaping (taste reactivity test) in rats
Type: in vivo, male Sprague-Dawley rats
Settings: for LiCl-induced conditioned gaping relative to vehicle: 45 min before conditioning; for Lowest effective dose for suppression of acute nausea-induced conditioned gaping: i.p., rats (FIG. 3)
Text: Animal procedures complied with the Canadian Council on Animal Care, and the protocols were approved by the Institutional Animal Care Committee at University of Guelph. Animal studies are reported in compliance with the ARRIVE guidelines (Kilkenny et al., 2010; McGrath and Lilley, 2015). A total of 200 näive male Sprague-Dawley rats, obtained from Charles River Laboratories (St Constant, Quebec), were used for all in vivo studies. Rats were individually housed (for acute nausea studies) or pair-housed [for anticipatory nausea and light-dark emergence studies] in home cages made of opaque white plastic (48×26×20 cm), containing bed-o-cob bedding from Harlan Laboratories, Inc. (Mississauga, Ontario), a brown paper towel, and Crinkl'Nest™ from The Andersons, Inc. (Maumee, Ohio). Additionally, in the home cage, rats were provided with a soft white paper container that was 14 cm long and 12 cm in diameter. All rats were subjected to an ambient temperature of 21° C. and a 12/12 h light-dark schedule (lights off at 07:00 h) and maintained on food (Highland Rat Chow [8640]) and water ad libitum. For the acute and anticipatory nausea studies, their body weights ranged from 263 to 329 g on the day of conditioning. For the light-dark emergence studies, their body weights ranged from 320 to 387 g on the day of test.
For the studies of acute nausea (in vivo experiment 1), rats were placed in taste reactivity (Grill and Norgren, 1978) chambers with their cannula attached to an infusion pump (Model KDS100, KD Scientific, Holliston, Mass., USA) for fluid delivery. The taste reactivity chambers were made of clear Plexiglas (22.5×26×20 cm) that sat on a table with a clear glass top. A mirror beneath the chamber at a 45° angle facilitated viewing of the ventral surface of the rat to observe orofacial responses. The conditioning chamber was in a dark room next to a 25 W light source. A video camera (Sony DCR-HC48, Henry's Cameras, Waterloo, ON, Canada) fire-wired into a computer was focused on the mirror and used to record each rat's orofacial reactions during the 2 min taste reactivity test. The video tapes were later scored using ‘The Observer’ (Noldus Information Technology Inc., Leesburg, Va., USA) software.
All rats were surgically implanted with an intraoral cannula according the procedures described by Limebeer et al. (2010). On the day of surgery, the rats were injected with an antibiotic (Derapin: […] s.c.; Pfizer Animal Health, Pfizer Canada Inc, Kirkland, Quebec, Canada) 30 min prior to being anaesthetized with isoflurane (4-5% induction, 1.5% maintenance in O2). Surgical plane anesthesia, as indicated by absence of the hind limb withdrawal reflex and defined by the Canadian Council of Animal Care, was induced before any surgery began, and was adjusted as necessary. Once sufficient anesthesia had been induced, a 2 cm^2 section of skin was shaved at the back of the neck at the level of the scapula. The skin was prepared by cleaning with soap (Bactistat; Ecolab, St. Paul, Minn., USA) and wiping with 70% isopropyl alcohol followed by 7% Betadine solution (Purdue Products L.P., Stamford, Conn., USA). Each rat was then administered a 5 mg·kg^−1 injection (i.p.) of the anti-inflammatory/analgesic drug carprofen (Rimadyl; Pfizer Canada Inc., Kirkland, Quebec, Canada). A thin-walled 15-gauge stainless steel needle was inserted into the shaved area on the neck, directed subcutaneously around the ear and brought out behind the first molar inside the mouth. A 10 cm length of Intra Medic PE90 tubing (Clay Adams Brand; Becton Dickinson and Co., Sparks, Md., USA) with an inner diameter of 0.86 mm and an outer diameter of 1.27 mm was then inserted through the needle after which the needle was removed. Betadine (10%) was applied to the puncture site and three elastic discs (2 cm^2) were placed over the exposed end of the tubing and drawn to the skin at the back of the neck for the purpose of stabilizing the cannula. […]

| SMILES | Suppressive effect on acute nausea after 5-HT1A antagonist pretreatment (0.1 μg·kg−1 HU-580 i.p., WAY100635 0.1 mg·kg−1 15 min before) | LiCl-induced conditioned gaping relative to vehicle (0.1 μg·kg−1 i.p.) | LiCl-induced conditioned gaping relative to vehicle (1 μg·kg−1 i.p., P<0.05) | Lowest effective dose for suppression of acute nausea-induced conditioned gaping [µg/kg] |
| --- | --- | --- | --- | --- |
| C=C(C)[C@@H]1CCC(C)=C[C@H]1c1c(O)cc(CCCCC)c(C(=O)OC)c1O [HU-580, Cannabidiolic Acid Methyl Ester] | blocked by WAY100635 | reduced LiCl-induced conditioned gaping behavior relative to vehicle | reduced LiCl-induced gaping responses relative to vehicle | 0.1 |
| C=C(C)[C@@H]1CCC(C)=C[C@H]1c1c(O)cc(CCCCC)c(C(=O)O)c1O [CBDA, Cannabidiolic acid] | – | subthreshold | reduced LiCl-induced gaping responses relative to vehicle | 1 |
